In PMC9019041, “Structural insights into the peptide selectivity and activation of human neuromedin U receptors” (Nature Communications, 2022):
Where two headings read alike, the source gives them in different places. Where no end group is shown, it is not given here.

Tests used:
Format in all cases: cell-based
NMUR2 H309A = biological target: T1, NMUR2 H309A (Homo sapiens, UniProt Q9GZQ4, H309A); assay: IP-One assay, NMUR2 H309A; conditions: mean ± S.E.M., three independent experiments (n=3), SEM, read-out: IP1 accumulation pEC50 ± S.E.M. (converted)
T1 construct: expressed in transfected cells; host or cells: AD293 cells
T1 sequence (Q9GZQ4 whole entry H309A): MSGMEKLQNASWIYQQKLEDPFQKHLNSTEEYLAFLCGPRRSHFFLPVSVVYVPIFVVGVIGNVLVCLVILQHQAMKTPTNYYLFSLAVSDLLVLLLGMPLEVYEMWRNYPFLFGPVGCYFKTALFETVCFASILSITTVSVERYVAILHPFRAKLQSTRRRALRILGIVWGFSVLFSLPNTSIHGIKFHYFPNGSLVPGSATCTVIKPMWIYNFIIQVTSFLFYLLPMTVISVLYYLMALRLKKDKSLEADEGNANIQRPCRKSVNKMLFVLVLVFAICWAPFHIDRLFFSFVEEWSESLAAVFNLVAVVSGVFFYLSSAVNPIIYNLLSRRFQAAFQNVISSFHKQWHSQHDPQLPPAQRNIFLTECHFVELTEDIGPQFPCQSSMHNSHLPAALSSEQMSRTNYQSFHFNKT
Procedure: (§1) IP-One production was measured using the IP-One HTRF kit (Cisbio)[62]. Briefly, AD293 cells (Agilent) were grown to a density of 400,000–500,000 cells per mL and then infected with separate plasmids at a suitable concentration. The culture was collected by centrifugation 24 h after incubation at 37 °C in 5% CO2 with a Stimulation Buffer. The cell suspension was then dispensed in a white 384-well plate at a volume of 7 μl per well before adding 7 μl of ligands. The mixture was incubated for 1 h at 37 °C. IP-One-d2 and anti-IP-One Cryptate dissolved in Lysis Buffer (3 μl each) were subsequently added and incubated for 15-30 min at room temperature before measurement. Intracellular IP-One measurement was carried with the IP-One HTRF kit and EnVision multi-plate reader (PerkinElmer) according to the manufacturer’s instructions. Data were normalized to the baseline response of the ligand.
(§2) The significance was determined with two-side, one-way ANOVA with Tukey’s test, and ^*P < 0.05 was considered statistically significant.

NMUR2 V310A = biological target: T2, NMUR2 V310A (Homo sapiens, UniProt Q9GZQ4, V310A); assay: IP-One assay, NMUR2 V310A; conditions: mean ± S.E.M., three independent experiments (n=3), SEM, read-out: IP1 accumulation pEC50 ± S.E.M. (converted)
T2 construct: expressed in transfected cells; host or cells: AD293 cells
T2 sequence (Q9GZQ4 whole entry V310A): as the sequence (Q9GZQ4 whole entry H309A) above, with A309H, V310A counted along it
Procedure: as §1, §2

NMUR2 A302G = biological target: T3, NMUR2 A302G (Homo sapiens, UniProt Q9GZQ4, A302G); assay: IP-One assay, NMUR2 A302G; conditions: mean ± S.E.M., three independent experiments (n=3), SEM, read-out: IP1 accumulation pEC50 ± S.E.M. (converted)
T3 construct: expressed in transfected cells; host or cells: AD293 cells
T3 sequence (Q9GZQ4 whole entry A302G): as the sequence (Q9GZQ4 whole entry H309A) above, with A302G, A309H counted along it
Procedure: as §1, §2

NMUR1 E120A = biological target: T4, NMUR1 E120A (Homo sapiens, UniProt Q9HB89, E120A); assay: IP-One assay, NMUR1 E120A; conditions: mean ± S.E.M., three independent experiments (n=3), SEM, read-out: IP1 accumulation pEC50 ± S.E.M. (converted)
T4 construct: The full-length human NMUR1 and NMUR2 were modified; expressed in transfected cells; host or cells: AD293 cells
T4 sequence (Q9HB89 whole entry E120A): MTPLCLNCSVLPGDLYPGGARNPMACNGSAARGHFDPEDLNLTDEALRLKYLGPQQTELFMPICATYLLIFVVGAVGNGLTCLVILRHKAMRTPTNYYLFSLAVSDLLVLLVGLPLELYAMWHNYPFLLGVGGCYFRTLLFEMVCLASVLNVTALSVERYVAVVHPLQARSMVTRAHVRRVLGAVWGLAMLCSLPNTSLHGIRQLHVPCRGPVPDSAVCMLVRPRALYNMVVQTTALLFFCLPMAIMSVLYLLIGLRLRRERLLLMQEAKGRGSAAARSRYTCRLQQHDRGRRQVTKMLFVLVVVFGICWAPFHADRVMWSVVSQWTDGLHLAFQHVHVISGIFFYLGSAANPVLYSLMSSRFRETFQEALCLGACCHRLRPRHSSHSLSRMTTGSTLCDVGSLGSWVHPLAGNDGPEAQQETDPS
Procedure: as §1, §2

NMUR2 T205A = biological target: T5, NMUR2 T205A (Homo sapiens, UniProt Q9GZQ4, T205A); assay: IP-One assay, NMUR2 T205A; conditions: mean ± S.E.M., three independent experiments (n=3), SEM, read-out: IP1 accumulation pEC50 ± S.E.M. (converted)
T5 construct: expressed in transfected cells; host or cells: AD293 cells
T5 sequence (Q9GZQ4 whole entry T205A): as the sequence (Q9GZQ4 whole entry H309A) above, with T205A, A309H counted along it
Procedure: as §1, §2

NMUR2 Y213A = biological target: T6, NMUR2 Y213A (Homo sapiens, UniProt Q9GZQ4, Y213A); assay: IP-One assay, NMUR2 Y213A; conditions: mean ± S.E.M., three independent experiments (n=3), SEM, read-out: IP1 accumulation pEC50 ± S.E.M. (converted)
T6 construct: expressed in transfected cells; host or cells: AD293 cells
T6 sequence (Q9GZQ4 whole entry Y213A): as the sequence (Q9GZQ4 whole entry H309A) above, with Y213A, A309H counted along it
Procedure: as §1, §2

NMUR1 Q335A = biological target: T7, NMUR1 Q335A (Homo sapiens, UniProt Q9HB89, Q335A); assay: IP-One assay, NMUR1 Q335A; conditions: mean ± S.E.M., three independent experiments (n=3), SEM, read-out: IP1 accumulation pEC50 ± S.E.M. (converted)
T7 construct: The full-length human NMUR1 and NMUR2 were modified; expressed in transfected cells; host or cells: AD293 cells
T7 sequence (Q9HB89 whole entry Q335A): as the sequence (Q9HB89 whole entry E120A) above, with A120E, Q335A counted along it
Procedure: as §1, §2

NMUR1 V339A = biological target: T8, NMUR1 V339A (Homo sapiens, UniProt Q9HB89, V339A); assay: IP-One assay, NMUR1 V339A; conditions: mean ± S.E.M., three independent experiments (n=3), SEM, read-out: IP1 accumulation pEC50 ± S.E.M. (converted)
T8 construct: The full-length human NMUR1 and NMUR2 were modified; expressed in transfected cells; host or cells: AD293 cells
T8 sequence (Q9HB89 whole entry V339A): as the sequence (Q9HB89 whole entry E120A) above, with A120E, V339A counted along it
Procedure: as §1, §2

NMUR2 E127A = biological target: T9, NMUR2 E127A (Homo sapiens, UniProt Q9GZQ4, E127A); assay: IP-One assay, NMUR2 E127A; conditions: mean ± S.E.M., three independent experiments (n=3), SEM, read-out: IP1 accumulation pEC50 ± S.E.M. (converted)
T9 construct: expressed in transfected cells; host or cells: AD293 cells
T9 sequence (Q9GZQ4 whole entry E127A): as the sequence (Q9GZQ4 whole entry H309A) above, with E127A, A309H counted along it
Procedure: as §1, §2

NMUR2 F44A = biological target: T10, NMUR2 F44A (Homo sapiens, UniProt Q9GZQ4, F44A); assay: IP-One assay, NMUR2 F44A; conditions: mean ± S.E.M., three independent experiments (n=3), SEM, read-out: IP1 accumulation pEC50 ± S.E.M. (converted)
T10 construct: The full-length human NMUR1 and NMUR2 were modified; expressed in transfected cells; host or cells: AD293 cells
T10 sequence (Q9GZQ4 whole entry F44A): as the sequence (Q9GZQ4 whole entry H309A) above, with F44A, A309H counted along it
Procedure: as §1, §2

NMUR2 F316A = biological target: T11, NMUR2 F316A (Homo sapiens, UniProt Q9GZQ4, F316A); assay: IP-One assay, NMUR2 F316A; conditions: mean ± S.E.M., three independent experiments (n=3), SEM, read-out: IP1 accumulation pEC50 ± S.E.M. (converted)
T11 construct: expressed in transfected cells; host or cells: AD293 cells (Agilent)
T11 sequence (Q9GZQ4 whole entry F316A): as the sequence (Q9GZQ4 whole entry H309A) above, with A309H, F316A counted along it
Procedure: as §1, §2

NMUR1 W320A = biological target: T12, NMUR1 W320A (Homo sapiens, UniProt Q9HB89, W320A); assay: IP-One assay, NMUR1 W320A; conditions: mean ± S.E.M., three independent experiments (n=3), SEM, read-out: IP1 accumulation pEC50 ± S.E.M. (converted)
T12 construct: The full-length human NMUR1 and NMUR2 were modified; expressed in transfected cells; host or cells: AD293 cells
T12 sequence (Q9HB89 whole entry W320A): as the sequence (Q9HB89 whole entry E120A) above, with A120E, W320A counted along it
Procedure: as §1, §2

NMUR1 M121A = biological target: T13, NMUR1 M121A (Homo sapiens, UniProt Q9HB89, M121A); assay: IP-One assay, NMUR1 M121A; conditions: mean ± S.E.M., three independent experiments (n=3), SEM, read-out: IP1 accumulation pEC50 ± S.E.M. (converted)
T13 construct: The full-length human NMUR1 and NMUR2 were modified; expressed in transfected cells; host or cells: AD293 cells
T13 sequence (Q9HB89 whole entry M121A): as the sequence (Q9HB89 whole entry E120A) above, with A120E, M121A counted along it
Procedure: as §1, §2

NMUR2 Y110A = biological target: T14, NMUR2 Y110A (Homo sapiens, UniProt Q9GZQ4, Y110A); assay: IP-One assay, NMUR2 Y110A; conditions: mean ± S.E.M., three independent experiments (n=3), SEM, read-out: IP1 accumulation pEC50 ± S.E.M. (converted)
T14 construct: expressed in transfected cells; host or cells: AD293 cells
T14 sequence (Q9GZQ4 whole entry Y110A): as the sequence (Q9GZQ4 whole entry H309A) above, with Y110A, A309H counted along it
Procedure: as §1, §2

NMUR2 N109A = biological target: T15, NMUR2 N109A (Homo sapiens, UniProt Q9GZQ4, N109A); assay: IP-One assay, NMUR2 N109A; conditions: mean ± S.E.M., three independent experiments (n=3), SEM, read-out: IP1 accumulation pEC50 ± S.E.M. (converted)
T15 construct: expressed in transfected cells; host or cells: AD293 cells
T15 sequence (Q9GZQ4 whole entry N109A): as the sequence (Q9GZQ4 whole entry H309A) above, with N109A, A309H counted along it
Procedure: as §1, §2

NMUR2 WT = biological target: T16, NMUR2 WT (Homo sapiens, UniProt Q9GZQ4); assay: IP-One assay, NMUR2 WT
T16 construct: The full-length human NMUR1 and NMUR2 were modified; expressed in transfected cells; host or cells: AD293 cells
T16 sequence (Q9GZQ4 whole entry): as the sequence (Q9GZQ4 whole entry H309A) above, with A309H counted along it
Procedure: as §1, §2

NMUR2 S312A = biological target: T17, NMUR2 S312A (Homo sapiens, UniProt Q9GZQ4, S312A); assay: IP-One assay, NMUR2 S312A; conditions: mean ± S.E.M., three independent experiments (n=3), SEM, read-out: IP1 accumulation pEC50 ± S.E.M. (converted)
T17 construct: expressed in transfected cells; host or cells: AD293 cells
T17 sequence (Q9GZQ4 whole entry S312A): as the sequence (Q9GZQ4 whole entry H309A) above, with A309H, S312A counted along it
Procedure: as §1, §2

NMUR2 T123A = biological target: T18, NMUR2 T123A (Homo sapiens, UniProt Q9GZQ4, T123A); assay: IP-One assay, NMUR2 T123A; conditions: mean ± S.E.M., three independent experiments (n=3), SEM, read-out: IP1 accumulation pEC50 ± S.E.M. (converted)
T18 construct: expressed in transfected cells; host or cells: AD293 cells
T18 sequence (Q9GZQ4 whole entry T123A): as the sequence (Q9GZQ4 whole entry H309A) above, with T123A, A309H counted along it
Procedure: as §1, §2

NMUR2 E102A = biological target: T19, NMUR2 E102A (Homo sapiens, UniProt Q9GZQ4, E102A); assay: IP-One assay, NMUR2 E102A; conditions: mean ± S.E.M., three independent experiments (n=3), SEM, read-out: IP1 accumulation pEC50 ± S.E.M. (converted)
T19 construct: expressed in transfected cells; host or cells: AD293 cells
T19 sequence (Q9GZQ4 whole entry E102A): as the sequence (Q9GZQ4 whole entry H309A) above, with E102A, A309H counted along it
Procedure: as §1, §2

NMUR2 M106A = biological target: T20, NMUR2 M106A (Homo sapiens, UniProt Q9GZQ4, M106A); assay: IP-One assay, NMUR2 M106A; conditions: mean ± S.E.M., three independent experiments (n=3), SEM, read-out: IP1 accumulation pEC50 ± S.E.M. (converted)
T20 construct: expressed in transfected cells; host or cells: AD293 cells
T20 sequence (Q9GZQ4 whole entry M106A): as the sequence (Q9GZQ4 whole entry H309A) above, with M106A, A309H counted along it
Procedure: as §1, §2

NMUR1 H338A = biological target: T21, NMUR1 H338A (Homo sapiens, UniProt Q9HB89, H338A); assay: IP-One assay, NMUR1 H338A; conditions: mean ± S.E.M., three independent experiments (n=3), SEM, read-out: IP1 accumulation pEC50 ± S.E.M. (converted)
T21 construct: The full-length human NMUR1 and NMUR2 were modified; expressed in transfected cells; host or cells: AD293 cells
T21 sequence (Q9HB89 whole entry H338A): as the sequence (Q9HB89 whole entry E120A) above, with A120E, H338A counted along it
Procedure: as §1, §2

NMUR1 N124A = biological target: T22, NMUR1 N124A (Homo sapiens, UniProt Q9HB89, N124A); assay: IP-One assay, NMUR1 N124A; conditions: mean ± S.E.M., three independent experiments (n=3), SEM, read-out: IP1 accumulation pEC50 ± S.E.M. (converted)
T22 construct: The full-length human NMUR1 and NMUR2 were modified; expressed in transfected cells; host or cells: AD293 cells
T22 sequence (Q9HB89 whole entry N124A): as the sequence (Q9HB89 whole entry E120A) above, with A120E, N124A counted along it
Procedure: as §1, §2

NMUR2 T203A = biological target: T23, NMUR2 T203A (Homo sapiens, UniProt Q9GZQ4, T203A); assay: IP-One assay, NMUR2 T203A; conditions: mean ± S.E.M., three independent experiments (n=3), SEM, read-out: IP1 accumulation pEC50 ± S.E.M. (converted)
T23 construct: expressed in transfected cells; host or cells: AD293 cells
T23 sequence (Q9GZQ4 whole entry T203A): as the sequence (Q9GZQ4 whole entry H309A) above, with T203A, A309H counted along it
Procedure: as §1, §2

NMUR2 F291A = biological target: T24, NMUR2 F291A (Homo sapiens, UniProt Q9GZQ4, F291A); assay: IP-One assay, NMUR2 F291A; conditions: mean ± S.E.M., three independent experiments (n=3), SEM, read-out: IP1 accumulation pEC50 ± S.E.M. (converted)
T24 construct: expressed in transfected cells; host or cells: AD293 cells
T24 sequence (Q9GZQ4 whole entry F291A): as the sequence (Q9GZQ4 whole entry H309A) above, with F291A, A309H counted along it
Procedure: as §1, §2

NMUR1 H200A = biological target: T25, NMUR1 H200A (Homo sapiens, UniProt Q9HB89, H200A); assay: IP-One assay, NMUR1 H200A; conditions: mean ± S.E.M., three independent experiments (n=3), SEM, read-out: IP1 accumulation pEC50 ± S.E.M. (converted)
T25 construct: The full-length human NMUR1 and NMUR2 were modified; expressed in transfected cells; host or cells: AD293 cells
T25 sequence (Q9HB89 whole entry H200A): as the sequence (Q9HB89 whole entry E120A) above, with A120E, H200A counted along it
Procedure: as §1, §2

- EC50 (NMUR2 H309A): 0.646 nM
- EC50 (NMUR2 V310A): 0.631 nM
- EC50 (NMUR2 A302G): 70.8 nM
- EC50 (NMUR1 E120A): 10.7 nM
- EC50 (NMUR2 T205A): 1.95 nM
- EC50 (NMUR2 Y213A): 7.24 nM
- EC50 (NMUR1 Q335A): 18.2 nM
- EC50 (NMUR1 V339A): 11.5 nM
- EC50 (NMUR2 E127A): 43.7 nM
- EC50 (NMUR2 F44A): 102 nM
- EC50 (NMUR2 F316A): 8.71 nM
- EC50 (NMUR1 W320A): 2880 nM
- EC50 (NMUR1 M121A): 51.3 nM
- EC50 (NMUR2 Y110A): 186 nM
- EC50 (NMUR2 N109A): 7.24 nM
- EC50 (NMUR2 WT; NMUR2 WT, mean ± S.E.M., three independent experiments (n=3), SEM, read-out: IP1 accumulation pEC50 ± S.E.M. (converted)): 0.631 nM
- EC50 (NMUR2 WT; WT NMUR2, Supplementary Fig. 1, three independent experiments, read-out: pEC50 of NMU (converted)): 3.02 nM
- EC50 (NMUR2 S312A): 2.45 nM
- EC50 (NMUR2 T123A): 9.77 nM
- EC50 (NMUR2 E102A): 30.9 nM
- EC50 (NMUR2 M106A): 19.5 nM
- EC50 (NMUR1 H338A): 29.5 nM
- EC50 (NMUR1 N124A): 6.92 nM
- EC50 (NMUR2 T203A): 0.891 nM
- EC50 (NMUR2 F291A): 4.68 nM
- EC50 (NMUR1 H200A): 41.7 nM
Substance: FRVDEEFQSPFASQSRGYFLFRPRN-NH2 [NMU, neuromedin U]
